In ChEMBL document CHEMBL3352264, “Synthesis and structure-activity relationships of new carbonyl guanidine derivatives as novel dual 5-HT₂B and 5-HT₇ receptor antagonists. Part 2” (Bioorg Med Chem, 2014):
The source made the active and inactive calls. The calls are words filed in the database; no cut-off is given here.

Key:
[1] = molecular target: T1, 5-hydroxytryptamine receptor 7 (Homo sapiens, UniProt P34969); test: Displacement of [3H]HT from human 5-HT7 receptor expressed in CHO cells by liquid scintillation counting; assay type: cell-based
T1 sequence (P34969 whole entry): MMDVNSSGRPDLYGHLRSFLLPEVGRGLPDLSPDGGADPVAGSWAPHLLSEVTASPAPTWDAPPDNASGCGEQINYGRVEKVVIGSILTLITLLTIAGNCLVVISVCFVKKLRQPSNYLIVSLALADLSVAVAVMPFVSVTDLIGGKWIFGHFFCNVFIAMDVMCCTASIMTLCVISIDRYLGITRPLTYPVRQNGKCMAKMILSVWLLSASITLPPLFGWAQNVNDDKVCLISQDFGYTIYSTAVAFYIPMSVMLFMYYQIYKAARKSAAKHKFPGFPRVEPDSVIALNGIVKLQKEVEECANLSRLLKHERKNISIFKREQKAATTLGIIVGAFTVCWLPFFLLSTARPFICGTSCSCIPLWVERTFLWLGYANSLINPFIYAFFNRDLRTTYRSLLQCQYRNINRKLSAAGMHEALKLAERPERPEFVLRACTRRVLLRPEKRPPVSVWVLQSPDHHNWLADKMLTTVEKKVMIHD

[2] = molecular target: T2, 5-hydroxytryptamine receptor 2B (Homo sapiens, UniProt P41595); test: Displacement of [3H]Mesulergine from human 5-HT2B receptor expressed in HEK293-EBNA cells by liquid scintillation counting; assay type: cell-based
T2 sequence (P41595 whole entry): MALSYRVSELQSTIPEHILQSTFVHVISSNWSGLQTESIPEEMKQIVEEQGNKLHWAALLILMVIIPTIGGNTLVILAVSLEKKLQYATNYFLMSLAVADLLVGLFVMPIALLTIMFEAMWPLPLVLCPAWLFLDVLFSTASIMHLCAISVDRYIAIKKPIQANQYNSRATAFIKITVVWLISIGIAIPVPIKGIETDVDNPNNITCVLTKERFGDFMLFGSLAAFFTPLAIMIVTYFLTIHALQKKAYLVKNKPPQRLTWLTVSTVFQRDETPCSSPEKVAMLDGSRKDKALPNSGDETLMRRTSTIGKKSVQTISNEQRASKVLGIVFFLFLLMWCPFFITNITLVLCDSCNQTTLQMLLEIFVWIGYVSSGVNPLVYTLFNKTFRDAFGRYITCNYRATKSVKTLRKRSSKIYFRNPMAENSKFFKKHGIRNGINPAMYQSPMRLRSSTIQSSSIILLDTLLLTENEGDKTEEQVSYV

Mus musculus [3] = test: Reversal of 5-carboxamidotryptamine-incued hypothermia in po dosed ddY mouse measured after 60 mins of treatment; assay type: functional; settings: 1 h, read-out: MED
Mus musculus [4] = test: Hypothermic effect in po dosed ddY mouse measured after 60 mins of treatment; assay type: ADME, organism-based; settings: in vivo, 1 h
D(2) dopamine receptor = D(2) dopamine receptor (Homo sapiens, UniProt P14416); test: Binding affinity to dopamine D2 receptor (unknown origin)
Sequence of D(2) dopamine receptor (P14416 whole entry): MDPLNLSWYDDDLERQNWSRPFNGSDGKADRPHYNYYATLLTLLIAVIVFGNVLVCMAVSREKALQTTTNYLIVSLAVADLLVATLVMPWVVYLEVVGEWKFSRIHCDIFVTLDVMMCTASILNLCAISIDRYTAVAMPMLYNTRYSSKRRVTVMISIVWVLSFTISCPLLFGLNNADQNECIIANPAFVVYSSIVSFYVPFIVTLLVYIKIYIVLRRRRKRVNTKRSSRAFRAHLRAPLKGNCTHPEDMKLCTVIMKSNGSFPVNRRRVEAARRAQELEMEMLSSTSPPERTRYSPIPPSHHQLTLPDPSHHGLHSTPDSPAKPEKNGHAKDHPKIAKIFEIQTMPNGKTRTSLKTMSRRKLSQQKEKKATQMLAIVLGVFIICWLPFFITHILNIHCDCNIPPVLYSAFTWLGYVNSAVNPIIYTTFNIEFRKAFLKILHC

[5] = molecular target: T3, Adrenergic receptor alpha-1 (Homo sapiens, UniProt P35348+P25100+P35368); test: Binding affinity to alpha-1 adrenergic receptor (unknown origin)
T3 sequence (P35348 whole entry): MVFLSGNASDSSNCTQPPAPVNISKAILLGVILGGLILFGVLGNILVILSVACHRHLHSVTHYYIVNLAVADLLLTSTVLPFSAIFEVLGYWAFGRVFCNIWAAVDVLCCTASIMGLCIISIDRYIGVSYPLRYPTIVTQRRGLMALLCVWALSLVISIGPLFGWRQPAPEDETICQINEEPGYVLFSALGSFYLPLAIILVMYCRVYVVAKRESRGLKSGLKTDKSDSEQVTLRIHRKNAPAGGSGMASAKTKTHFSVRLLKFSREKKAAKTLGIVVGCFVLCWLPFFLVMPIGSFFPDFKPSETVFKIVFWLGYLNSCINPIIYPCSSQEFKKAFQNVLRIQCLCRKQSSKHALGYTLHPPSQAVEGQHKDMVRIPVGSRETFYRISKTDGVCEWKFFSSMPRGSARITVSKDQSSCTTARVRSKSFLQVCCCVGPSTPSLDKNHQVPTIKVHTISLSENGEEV
T3 sequence (P25100 whole entry): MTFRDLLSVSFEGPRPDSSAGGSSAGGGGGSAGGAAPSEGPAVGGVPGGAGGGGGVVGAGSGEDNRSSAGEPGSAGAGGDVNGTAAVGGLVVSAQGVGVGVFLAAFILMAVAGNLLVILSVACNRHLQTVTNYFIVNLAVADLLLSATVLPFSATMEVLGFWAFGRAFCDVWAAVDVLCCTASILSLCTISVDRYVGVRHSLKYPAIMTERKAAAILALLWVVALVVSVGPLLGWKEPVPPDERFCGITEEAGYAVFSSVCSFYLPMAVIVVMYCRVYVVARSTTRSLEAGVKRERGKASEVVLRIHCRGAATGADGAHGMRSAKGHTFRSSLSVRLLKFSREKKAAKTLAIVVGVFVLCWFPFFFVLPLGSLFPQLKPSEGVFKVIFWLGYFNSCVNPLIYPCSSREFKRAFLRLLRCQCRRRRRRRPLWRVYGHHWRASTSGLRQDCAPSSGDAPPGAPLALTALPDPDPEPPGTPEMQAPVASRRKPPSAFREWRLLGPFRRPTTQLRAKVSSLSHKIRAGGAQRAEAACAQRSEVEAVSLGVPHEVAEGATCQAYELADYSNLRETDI
T3 sequence (P35368 whole entry): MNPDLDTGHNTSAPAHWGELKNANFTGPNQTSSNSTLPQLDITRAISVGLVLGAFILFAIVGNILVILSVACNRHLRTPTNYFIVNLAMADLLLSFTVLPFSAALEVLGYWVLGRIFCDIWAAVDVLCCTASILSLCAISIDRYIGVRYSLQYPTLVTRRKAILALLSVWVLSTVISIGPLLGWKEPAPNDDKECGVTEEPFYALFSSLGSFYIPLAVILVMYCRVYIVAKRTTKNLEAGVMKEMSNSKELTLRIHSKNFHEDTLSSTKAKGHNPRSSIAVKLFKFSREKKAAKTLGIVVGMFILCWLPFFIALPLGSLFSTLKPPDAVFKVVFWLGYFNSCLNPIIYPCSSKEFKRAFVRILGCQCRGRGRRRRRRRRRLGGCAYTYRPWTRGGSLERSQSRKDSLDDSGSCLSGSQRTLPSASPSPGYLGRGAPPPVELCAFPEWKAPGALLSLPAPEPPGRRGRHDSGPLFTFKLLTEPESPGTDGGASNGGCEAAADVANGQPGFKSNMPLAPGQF

[6] = molecular target: T4, 5-hydroxytryptamine receptor 2C (Homo sapiens, UniProt P28335); test: Binding affinity to 5-HT2C receptor (unknown origin)
T4 sequence (P28335 whole entry): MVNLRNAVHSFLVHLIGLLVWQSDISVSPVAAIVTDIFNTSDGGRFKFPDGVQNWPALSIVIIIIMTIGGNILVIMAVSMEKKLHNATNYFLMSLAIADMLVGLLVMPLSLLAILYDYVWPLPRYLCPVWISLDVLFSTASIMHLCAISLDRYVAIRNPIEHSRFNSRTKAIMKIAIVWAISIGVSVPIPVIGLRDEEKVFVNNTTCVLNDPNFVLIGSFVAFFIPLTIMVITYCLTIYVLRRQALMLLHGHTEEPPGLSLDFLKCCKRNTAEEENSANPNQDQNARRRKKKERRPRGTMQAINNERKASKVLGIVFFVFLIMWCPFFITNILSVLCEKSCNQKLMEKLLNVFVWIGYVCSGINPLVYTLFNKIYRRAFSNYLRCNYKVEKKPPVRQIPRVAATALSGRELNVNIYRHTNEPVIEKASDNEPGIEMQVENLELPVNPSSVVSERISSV

Cavia porcellus [7] = test: Suppression of 5-HT-induced dural plasma protein extravasation in Hartley guinea pig at 30 mg/kg, po after 16 hrs; assay type: functional, organism-based; parameters: dose 30 mg/kg
Cavia porcellus [8] = test: Suppression of 5-HT-induced dural plasma protein extravasation in po dosed Hartley guinea pig after 16 hrs; assay type: functional, organism-based
[9] = molecular target: 5-hydroxytryptamine receptor 2A (Homo sapiens, UniProt P28223); test: Binding affinity to 5-HT2A receptor (unknown origin)
Sequence of 5-hydroxytryptamine receptor 2A (P28223 whole entry): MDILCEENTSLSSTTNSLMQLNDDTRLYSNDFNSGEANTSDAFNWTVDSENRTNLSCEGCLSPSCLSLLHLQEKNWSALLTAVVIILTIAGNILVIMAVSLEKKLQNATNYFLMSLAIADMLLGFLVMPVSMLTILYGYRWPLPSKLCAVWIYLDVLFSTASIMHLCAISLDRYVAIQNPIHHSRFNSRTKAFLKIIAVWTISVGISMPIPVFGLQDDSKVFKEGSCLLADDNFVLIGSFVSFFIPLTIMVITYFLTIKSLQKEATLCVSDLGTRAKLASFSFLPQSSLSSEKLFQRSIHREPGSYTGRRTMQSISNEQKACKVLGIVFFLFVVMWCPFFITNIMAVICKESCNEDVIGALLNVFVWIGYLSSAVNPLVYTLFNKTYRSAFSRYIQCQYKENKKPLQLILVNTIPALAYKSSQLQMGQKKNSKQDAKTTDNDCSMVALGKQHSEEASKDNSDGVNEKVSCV

[10] = molecular target: T5, Muscarinic acetylcholine receptor M1 (Homo sapiens, UniProt P11229); test: Binding affinity to muscarinic M1 receptor (unknown origin)
T5 sequence (P11229 whole entry): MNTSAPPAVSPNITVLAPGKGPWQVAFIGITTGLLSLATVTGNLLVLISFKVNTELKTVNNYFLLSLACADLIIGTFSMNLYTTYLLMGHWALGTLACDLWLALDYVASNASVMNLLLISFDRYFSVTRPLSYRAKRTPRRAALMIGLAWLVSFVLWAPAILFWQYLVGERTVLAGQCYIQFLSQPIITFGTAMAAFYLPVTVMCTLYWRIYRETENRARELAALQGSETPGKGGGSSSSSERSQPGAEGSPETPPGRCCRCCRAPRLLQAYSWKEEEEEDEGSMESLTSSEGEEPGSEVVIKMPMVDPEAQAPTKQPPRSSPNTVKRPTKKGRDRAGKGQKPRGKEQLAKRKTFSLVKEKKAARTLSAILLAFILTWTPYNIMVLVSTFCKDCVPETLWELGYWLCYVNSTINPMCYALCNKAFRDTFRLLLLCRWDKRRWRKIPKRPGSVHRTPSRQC

[11] = molecular target: T1, 5-hydroxytryptamine receptor 7; test: Inhibition of human 5-HT7 receptor expressed in CHO cells assessed as cAMP production by EIA system; assay type: functional, cell-based
[12] = molecular target: T2, 5-hydroxytryptamine receptor 2B; test: Inhibition of human 5-HT2B receptor expressed in HEK293-EBNA cells assessed as [3H]PI metabolism by liquid scintillation counting; assay type: cell-based

SMILES | Ki [1] | Ki [2] | also measured
NC(N)=NC(=O)c1ccc2c(c1)C(O)c1cccc(CO)c1-2 (stereo not given) | 0.041 µM | 0.0066 µM | –
NC(N)=NC(=O)c1ccc2c(c1)C(O)c1ccccc1-2 (stereo not given) | – | – | minimal effective dose (Mus musculus [3]): > 30 mg/kg
NC(N)=NC(=O)c1ccc2c(c1)C(O)c1c(Cl)cccc1-2 (stereo not given) | 0.033 µM | 0.00011 µM | –
NC(N)=NC(=O)c1ccc2c(c1)C(O)c1ccc(Cl)cc1-2 (stereo not given) | 0.16 µM | 0.011 µM | –
NC(N)=NC(=O)c1ccc2c(c1)C(O)c1cccc(Cl)c1-2 (stereo not given) | 0.041 µM | 0.0015 µM | –
Cc1cccc2c1-c1ccc(C(=O)N=C(N)N)cc1C2(C)O.Cl (stereo not given) | 0.004 µM | 0.0011 µM | minimal effective dose (Mus musculus [3]): > 30 mg/kg
CC(=O)NC1c2ccccc2-c2ccc(C(=O)N=C(N)N)cc21 (stereo not given) | 0.18 µM | 0.034 µM | –
Cc1cccc2c1C(O)c1cc(C(=O)N=C(N)N)ccc1-2 (stereo not given) | 0.087 µM | 0.00067 µM | –

Second part, led by results:

Ki [1] | Ki [2] | SMILES | also measured
0.0041 µM | 0.0016 µM | CCc1cccc2c1-c1ccc(C(=O)N=C(N)N)cc1C2O (stereo not given) | minimal effective dose (Mus musculus [3]): > 30 mg/kg
0.014 µM | 0.00081 µM | Cc1cccc2c1-c1ccc(C(=O)N=C(N)N)cc1C2O.Cl (stereo not given) | Activity (Mus musculus [4]): Toxic
> 1 µM | 0.0017 µM | NC(N)=NC(=O)c1ccc2c(c1)C(O)c1cc(Cl)ccc1-2 (stereo not given) | –
0.0041 µM | 0.0044 µM | CC1c2ccccc2-c2ccc(C(=O)N=C(N)N)cc21.Cl (stereo not given) | Activity (Mus musculus [4]): Toxic
0.0043 µM | 0.0043 µM | CC1(O)c2ccccc2-c2ccc(C(=O)N=C(N)N)cc21.Cl (stereo not given) | Ki (D(2) dopamine receptor): > 1 µM; Ki [5]: > 1 µM; Ki [6]: 0.39 µM; inhibition (Cavia porcellus [7]): Active; inhibition (Cavia porcellus [8]): Dose-dependent effect; Ki [9]: > 1 µM; Ki [10]: > 1 µM; IC50 [11]: 0.059 µM; minimal effective dose (Mus musculus [3]): 30 mg/kg; IC50 [12]: 0.052 µM
0.057 µM | 0.0009 µM | N=C(N)NC(=O)c1ccc2c(c1)C(F)c1ccccc1-2 (stereo not given) | –
0.05 µM | 0.0063 µM | COCc1cccc2c1-c1ccc(C(=O)N=C(N)N)cc1C2O (stereo not given) | –
0.0023 µM | 0.00071 µM | CCc1cccc2c1-c1ccc(C(=O)N=C(N)N)cc1C2(C)O.Cl (stereo not given) | minimal effective dose (Mus musculus [3]): > 30 mg/kg
0.043 µM | 0.018 µM | NC(N)=NC(=O)c1ccc2c(c1)C(N)c1ccccc1-2 (stereo not given) | –
0.029 µM | 0.00091 µM | NC(N)=NC(=O)c1ccc2c(c1)C(O)c1cccc(F)c1-2 (stereo not given) | –
